From the supplement of paper PMC10307832

Tests used:
Experiment in all cases: relative viability (nuclei count vs DMSO), 5 days (fraction); higher = more cells survive
IU1-47 + AZD7762 = compound: CC1=CC(=C(N1C2=CC=C(C=C2)Cl)C)C(=O)CN3CCCCC3 [IU1-47] + NC(=O)Nc1cc(-c2cccc(F)c2)sc1C(=O)N[C@H]1CCCNC1 [AZD7762] (partner 0.2 µM)
In short: (§1)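 Relative viability equals treated-well nuclei counts divided by vehicle-well nuclei counts. Counts came from 4× images of lung cancer cell lines grown in 1536-well plates for 5 days after pin-tool dosing on the day after seeding. Dosing used one drug alone or a fixed anchor-drug dose plus five library-drug doses (not always all listed) in √10 steps, and values are medians of duplicate plates.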

IU1-47 + Palbociclib = compound: CC1=CC(=C(N1C2=CC=C(C=C2)Cl)C)C(=O)CN3CCCCC3 [IU1-47] + CC(=O)c1c(C)c2cnc(Nc3ccc(N4CCNCC4)cn3)nc2n(C2CCCC2)c1=O [Palbociclib] (partner 0.5 µM)
In short: as §1

FG-4592 + Decitabine = compound: Cc1nc(C(=O)NCC(=O)O)c(O)c2ccc(Oc3ccccc3)cc12 [FG-4592] + Nc1ncn([C@H]2C[C@H](O)[C@@H](CO)O2)c(=O)n1 [Decitabine] (partner 2 µM)
In short: as §1

FG-4592 + Crizotinib = compound: Cc1nc(C(=O)NCC(=O)O)c(O)c2ccc(Oc3ccccc3)cc12 [FG-4592] + C[C@@H](Oc1cc(-c2cnn(C3CCNCC3)c2)cnc1N)c1c(Cl)ccc(F)c1Cl [Crizotinib] (partner 1 µM)
In short: as §1

Cell Line	relative viability (IU1-47 + AZD7762; first compound 0.08 µM)	relative viability (IU1-47 + AZD7762; first compound 0.253 µM)	relative viability (IU1-47 + AZD7762; first compound 0.8 µM)	relative viability (IU1-47 + AZD7762; first compound 2.53 µM)	relative viability (IU1-47 + AZD7762; first compound 8 µM)	relative viability (IU1-47 + Palbociclib; first compound 0.08 µM)	relative viability (IU1-47 + Palbociclib; first compound 0.253 µM)	relative viability (IU1-47 + Palbociclib; first compound 0.8 µM)	relative viability (IU1-47 + Palbociclib; first compound 2.53 µM)	relative viability (IU1-47 + Palbociclib; first compound 8 µM)	relative viability (FG-4592 + Decitabine; first compound 0.253 µM)	relative viability (FG-4592 + Decitabine; first compound 0.8 µM)	relative viability (FG-4592 + Decitabine; first compound 2.53 µM)	relative viability (FG-4592 + Decitabine; first compound 8 µM)	relative viability (FG-4592 + Crizotinib; first compound 0.08 µM)	relative viability (FG-4592 + Crizotinib; first compound 0.253 µM)	relative viability (FG-4592 + Crizotinib; first compound 0.8 µM)	relative viability (FG-4592 + Crizotinib; first compound 2.53 µM)	relative viability (FG-4592 + Crizotinib; first compound 8 µM)	relative viability (FG-4592 + Decitabine; first compound 0.08 µM)
NCI-H322M	0.671	0.696	0.54	0.615	0.488	0.489	0.551	0.487	0.537	0.494	0.658	0.714	0.638	0.725	0.924	0.886	1.19	1.02	0.815	
NCI-H838	0.931	0.99	0.917	0.925	0.876	0.181	0.222	0.225	0.232	0.236	0.439	0.446	0.459	0.443	0.795	0.799	0.962	0.941	0.904	0.456
HARA	0.394		0.359	0.176	0.273	0.231	0.316	0.239		0.221			0.676	0.559	1.06	0.967		1	0.977	
NCI-H2087	1.45	1.29	1.53	1.31	1.24	0.204	0.302	0.239	0.174	0.25	0.308	0.348		0.256	0.722	0.648	1.01	0.997	0.896	0.368
NCI-H1437	1.14	1.11	1.12	1.05	1.1	0.284	0.281	0.344	0.282	0.294	0.512	0.606	0.632	0.534	0.95	0.911	1.03	0.936	0.879	0.576
NCI-H1792	0.501	0.613	0.643	0.666	0.619	0.727	0.643	0.707	0.44	0.544	0.485		0.525	0.484	0.96	0.764	0.812	1.01	0.975	0.508
ChaGo-K-1	0.934	1.01	0.91	0.91	0.954	0.96	0.915	1.05	0.897	0.819	0.427	0.509	0.493	0.466	1.12	1.09	1.14	1.09	0.942	0.508
NCI-H650	1.22	1	1.06	0.947	1.24	0.361	0.332	0.312	0.373	0.288	0.275	0.301	0.296	0.306	0.598	0.648	0.756	0.654	0.61	0.314
LK-2	0.488	0.557	0.542	0.368	0.305	1.04	1.03	0.568	0.68	0.559	0.272	0.274	0.371	0.295		0.23		0.279	0.216	0.273
201T	0.696	0.592	0.633	0.504	0.78	0.377	0.417	0.361	0.391	0.399	0.839	0.842	0.859	0.878	1	1.01	1.05	1.02	0.974	0.865
HCC-44	1	1.07	1.04	0.959	1.04	1.02	0.95	0.996	0.993	1.01	0.941	0.914	0.93	1	0.754	0.798	0.878	0.805	0.82	0.902
H3255	1.19	1.01	1.08	0.877	0.893	0.351	0.329	0.331	0.289	0.322	0.585	0.6	0.592	0.557	0.963	0.79	0.827	0.917	1.05	0.702
NCI-H647	0.551	0.392	0.486	0.386	0.29	0.38	0.416	0.416	0.419	0.42	0.326	0.341	0.372	0.227	0.941	1.04	1.01	1.17	1.03	0.347
NCI-H23	0.229		0.227	0.18	0.243	0.532		0.431	0.511	0.499	0.268	0.334	0.265	0.267	0.556	0.471	0.654	0.627	0.472	0.322
NCI-H1944	0.794	0.612	0.601	0.445	0.464	0.342	0.376	0.345	0.291	0.33	0.446	0.415	0.436	0.388	1.05	1.1	1.13	1.17	1.05	0.422
NCI-H460	0.639	0.635	0.686	0.754	0.628	0.24	0.123	0.16	0.153	0.105	0.461	0.51	0.482	0.51	0.87	0.864	1.21	0.952	0.994	0.448
EKVX	0.894	0.866	0.725		0.756	0.391	0.397	0.419		0.347	0.368	0.287	0.319	0.341	1.08	0.816	1.23	0.977	1.02	0.325

Cell Line	relative viability (IU1-47 + AZD7762; first compound 0.08 µM)	relative viability (IU1-47 + AZD7762; first compound 0.253 µM)	relative viability (IU1-47 + AZD7762; first compound 0.8 µM)	relative viability (IU1-47 + AZD7762; first compound 2.53 µM)	relative viability (IU1-47 + AZD7762; first compound 8 µM)	relative viability (IU1-47 + Palbociclib; first compound 0.08 µM)	relative viability (IU1-47 + Palbociclib; first compound 0.253 µM)	relative viability (IU1-47 + Palbociclib; first compound 0.8 µM)	relative viability (IU1-47 + Palbociclib; first compound 2.53 µM)	relative viability (IU1-47 + Palbociclib; first compound 8 µM)	relative viability (FG-4592 + Decitabine; first compound 0.253 µM)	relative viability (FG-4592 + Decitabine; first compound 0.8 µM)	relative viability (FG-4592 + Decitabine; first compound 2.53 µM)	relative viability (FG-4592 + Decitabine; first compound 8 µM)	relative viability (FG-4592 + Crizotinib; first compound 0.08 µM)	relative viability (FG-4592 + Crizotinib; first compound 0.253 µM)	relative viability (FG-4592 + Crizotinib; first compound 0.8 µM)	relative viability (FG-4592 + Crizotinib; first compound 2.53 µM)	relative viability (FG-4592 + Crizotinib; first compound 8 µM)	relative viability (FG-4592 + Decitabine; first compound 0.08 µM)
NCI-H358	0.576	0.521	0.5	0.405	0.435	0.131	0.165	0.149	0.112	0.141	0.194	0.288	0.192	0.202	0.531	0.602	0.703	0.704	0.594	0.213
EPLC-272H	0.232	0.205	0.226		0.217	0.315	0.338	0.289		0.336	0.302	0.304	0.368	0.382	0.844	0.72	0.631	0.888	0.873	0.417
NCI-H2126	1.01	1.08	1.14	0.712	0.837	0.392	0.352	0.359	0.364	0.395	0.541	0.543	0.578	0.578	0.989	1.01	1.04	1	1.03	0.54
LXF-289	1.25	1.14	1.21	1.07	1.02	0.634	0.679	0.603	0.58	0.619	0.386	0.35	0.378	0.305	0.796	0.721	0.911	0.77	0.901	0.425
NCI-H2405	0.795	0.804	0.853	0.815	0.739	0.539	0.593	0.531	0.539	0.506	0.714	0.702	0.688	0.671	0.665	0.657	0.878	0.857	0.87	0.69
NCI-H1755	0.429	0.557	0.57	0.443	0.377	0.44	0.518	0.461	0.46	0.436	0.773	0.736	0.679	0.689	0.77	0.875	0.864	0.941	0.916	0.697
HCC-78	0.606	0.546	0.638	0.654	0.609	0.474	0.441	0.5	0.507	0.457		0.694	0.652	0.562	0.312	0.332	0.269	0.31	0.337	0.666
LOU-NH91	0.824	0.775	0.826	0.815	0.765	0.524	0.533	0.539	0.431	0.507	0.802	0.814	0.802	0.812	0.738	0.677	0.716	0.727	0.715	0.861
NCI-H3122	1.08	1.08	1.02	1.02	0.88	0.186	0.189	0.18	0.275	0.212	0.476	0.332	0.48	0.362	0.277	0.271	0.26	0.3	0.255	0.405
HCC-827	0.174	0.213	0.227	0.202	0.197	0.553	0.497	0.534	0.551	0.535	0.28	0.319	0.334	0.328	0.92	0.892	0.923	1.02	0.869	0.376
NCI-H1975	0.698	0.766	0.728	0.797	0.756	0.586	0.547	0.868	0.611	0.364	0.363	0.426	0.406	0.404	0.921	0.892	1.11	0.991	0.897	0.378
NCI-H1651	0.479	0.498	0.529	0.316	0.418	0.525	0.539	0.495	0.523	0.523	0.603	0.703	0.668	0.499	0.89	0.799	0.829	0.863	0.862	0.713
NCI-H441	1.38	1.36	1.19	1.18	1.21	0.265	0.243	0.206	0.204	0.188	0.255	0.234	0.232	0.25	0.582	0.646	0.916	0.72	0.632	0.235
LCLC-103H	0.84	0.948	0.797	0.54	0.807	0.551	0.531	0.506	0.478	0.469	0.747	0.664	0.741	0.66	0.884	0.977	1.01	0.994	1.05	0.773
LCLC-97TM1	0.31	0.286	0.294	0.0924	0.245	0.281	0.229	0.218		0.297	0.209		0.217	0.173	0.347	0.342	0.372		0.435	0.218
NCI-H727	0.582	0.539	0.539	0.512	0.58	0.642	0.648	0.606	0.686	0.669	0.663	1.15	0.9	0.84	0.776	0.827	0.913	1.1	0.83	0.889
